# Source: patent US20120245154A1, “SUBSTITUTED AMINOTHIAZINE DERIVATIVE” (SHIONOGI & CO., LTD., priority 2009, published 2012)
# Columns and labels:
# [1] = biological target: T1, hERG channel (IKr) (Homo sapiens, UniProt Q12809); experiment: hERG test; assay type: cell-based; settings: HEK293 cells expressing hERG channel, pH 7.4, whole cell patch clamp, concentration not given, read-out: % inhibition relative to the tail peak current (IKr)
# T1 construct: expressed in transfected cells; host or cells: HEK293
# Source text: For the purpose of assessing risk of an electrocardiogram QT interval prolongation, effects on delayed rectifier K+ current (IKr), which plays an important role in the ventricular repolarization process, was studied using HEK293 cells expressing human ether-a-go-go related gene (hERG) channel.
# After a cell was retained at a membrane potential of −80 mV by whole cell patch clamp method using an automated patch clamp system (PatchXpress 7000A, Axon Instruments Inc.), IKr induced by depolarization pulse stimulation at +50 mV for 2 seconds and, further, repolarization pulse stimulation at −50 mV for 2 seconds was recorded. […] From the recording IKr, an absolute value of the tail peak current was measured based on the current value at the resting membrane potential using an analysis software (DataXpress vet.1, Molecular Devices Corporation). Further, the % inhibition relative to the tail peak current before application of the test substance was calculated, and compared with the vehicle-applied group (0.1% dimethyl sulfoxide solution) to assess influence of the test substance on IKr.
# [2] = Brain distribution studies; assay type: in vivo; settings: brain/plasma, iv; rat, intravenously 0.5 mg/mL/kg, 30 minutes later; read-out: brain Kp value (area ratio brain/plasma)
# Method: Compound of the present invention was intravenously administered to a rat at 0.5 mg/mL/kg dosage. […] The brain was enucleated and 20-25% of homogenate thereof was prepared with distilled water. The obtained blood was used as plasma after centrifuging. To the brain sample was added the control plasma at 1:1. To the plasma samples was added the control brains at 1:1. Each sample was measured using LC/MS/MS. The obtained area ratio (a brain/plasma) was used for the brain Kp value.
# T1 sequence (Q12809 whole entry): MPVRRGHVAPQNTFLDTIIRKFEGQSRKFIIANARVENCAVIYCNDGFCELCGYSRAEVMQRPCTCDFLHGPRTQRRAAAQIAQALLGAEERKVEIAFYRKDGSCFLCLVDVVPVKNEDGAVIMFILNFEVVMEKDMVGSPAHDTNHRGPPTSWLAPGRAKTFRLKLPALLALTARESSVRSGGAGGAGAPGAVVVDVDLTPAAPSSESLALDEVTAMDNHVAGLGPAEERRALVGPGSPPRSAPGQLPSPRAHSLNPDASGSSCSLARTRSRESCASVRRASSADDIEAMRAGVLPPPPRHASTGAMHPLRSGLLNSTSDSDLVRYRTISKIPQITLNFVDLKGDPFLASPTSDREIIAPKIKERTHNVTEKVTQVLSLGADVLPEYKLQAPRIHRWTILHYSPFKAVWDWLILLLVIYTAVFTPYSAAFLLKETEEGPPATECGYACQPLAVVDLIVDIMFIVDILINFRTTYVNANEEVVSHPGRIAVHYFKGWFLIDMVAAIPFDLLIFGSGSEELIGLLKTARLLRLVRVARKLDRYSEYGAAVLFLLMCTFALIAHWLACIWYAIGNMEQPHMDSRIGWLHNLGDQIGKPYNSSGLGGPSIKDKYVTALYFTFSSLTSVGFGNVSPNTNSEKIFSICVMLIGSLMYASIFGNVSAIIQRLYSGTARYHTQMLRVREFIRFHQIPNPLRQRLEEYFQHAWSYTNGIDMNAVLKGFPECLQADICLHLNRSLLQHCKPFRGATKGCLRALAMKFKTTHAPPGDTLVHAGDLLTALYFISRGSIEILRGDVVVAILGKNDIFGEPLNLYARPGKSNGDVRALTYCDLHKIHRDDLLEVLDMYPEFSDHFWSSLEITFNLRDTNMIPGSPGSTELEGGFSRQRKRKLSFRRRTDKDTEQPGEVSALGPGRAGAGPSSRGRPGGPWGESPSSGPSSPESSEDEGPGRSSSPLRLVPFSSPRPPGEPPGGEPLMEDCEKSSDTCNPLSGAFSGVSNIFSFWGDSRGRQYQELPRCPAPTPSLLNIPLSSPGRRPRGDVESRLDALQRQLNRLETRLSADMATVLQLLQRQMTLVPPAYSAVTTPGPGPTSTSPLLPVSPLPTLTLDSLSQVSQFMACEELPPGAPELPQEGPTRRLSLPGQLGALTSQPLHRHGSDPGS
Structure (SMILES),inhibition at 10 min [1] [%],Kp at 0.5 h [2]
Cc1cnc(C(=O)Nc2ccc(F)c([C@]3(C)C=C(C(F)F)SC(N)=N3)c2)cn1 [Compound I-14],3.8,–
CC(C)C1=C[C@@](C)(c2cc(NC(=O)c3ccc(C#N)cn3)ccc2F)N=C(N)S1 [Compound I-54],–,2.5
